Data from ChEMBL document CHEMBL1201862, “PubChem BioAssay data set” (2004).
Activity calls are given as the source filed them.

Key:
[1] = bead-based luminescence quenchers, dual-tagged ARNT – biochemical, AlphaScreen, cherry-pick, artefact control for ARNT-TACC3 interaction inhibitor project, dose response (AID 651705); format: functional;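 also: AlphaScreen bead proximity signal that flags compounds interfering with the detection technology; potency reflects signal decrease which marks the compound as an assay artifact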
[2] = target: Heat shock protein HSP 90-alpha (Homo sapiens, UniProt P07900); format: functional, organism-based
[3] = target: Nuclear receptor subfamily 5 group A member 2 (Homo sapiens, UniProt O00482); format: functional, cell-based;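 also: HEK293T cells transfected with LRH-1 and a StAR promoter luciferase reporter; potency for inhibitors that lower LRH-1 driven reporter light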
Steroidogenic factor 1 = Steroidogenic factor 1 (Homo sapiens, UniProt Q13285); assay: Counterscreen for inverse agonists of the liver receptor homolog-1 (LRH-1; NR5A2): Luminescence-based cell-based high throughput dose response assay to identify inverse agonists of the Steroidogenic Factor 1 Nuclear Receptor (SF1; NR5A1).; format: functional
[4] = nonselective StAR promoter luciferase inhibitors – cell-based, luminescence, luciferase reporter, counter-screen for LRH-1 inverse agonist project, dose response (AID 651969); format: functional
[5] = target: Glucose-6-phosphate 1-dehydrogenase (Homo sapiens, UniProt P11413); assay: inhibition of Homo sapiens G6PD, dose series – biochemical, fluorescence, selectivity assay for P. falciparum G6PD inhibitor project, dose response (AID 504792); format: functional
Genome polyprotein = Genome polyprotein (dengue virus type 2, UniProt P29990); assay: flavivirus cap methylation enzyme inhibition – biochemical, confirmation dose response, primary screen (AID 588689); format: functional
Cytochrome P450 2C19 = Cytochrome P450 2C19 (Homo sapiens, UniProt P33261); assay: Cytochrome panel assay with activity outcomes. Panel member name: p450-cyp2c19 Compounds with AC50 equal or less than 10 uM are considered active; format: functional; conditions: read-out: AC50
Cytochrome P450 2D6 = Cytochrome P450 2D6 (Homo sapiens, UniProt P10635);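 also: CYP2D6 member of a cytochrome P450 panel assay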
[6] = THP-1 cell cytotoxicity, dose response, cytotoxicity control for non-replicating M. tuberculosis project (AID 489025); format: functional
[7] = Vero E6 cell cytotoxicity, dose response, cytotoxicity control for non-replicating M. tuberculosis project, secondary assay (AID 492998); format: functional, VeroE6; conditions: Vero C1008
cells = format: functional
Beta-galactosidase = Beta-galactosidase (Escherichia coli, UniProt Q8VNN2); assay: PubChem AID 485352; format: functional
[8] = target: T1, Type-1 angiotensin II receptor (Homo sapiens, UniProt P30556); assay: antagonism of angiotensin II type 1 receptor – cell-based, uHTS hits, selectivity assay for APJ receptor antagonist project, dose response (AID 463214); format: functional;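 also: antagonist potency against angiotensin II stimulated AT1 response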
T1 sequence (P30556 whole entry): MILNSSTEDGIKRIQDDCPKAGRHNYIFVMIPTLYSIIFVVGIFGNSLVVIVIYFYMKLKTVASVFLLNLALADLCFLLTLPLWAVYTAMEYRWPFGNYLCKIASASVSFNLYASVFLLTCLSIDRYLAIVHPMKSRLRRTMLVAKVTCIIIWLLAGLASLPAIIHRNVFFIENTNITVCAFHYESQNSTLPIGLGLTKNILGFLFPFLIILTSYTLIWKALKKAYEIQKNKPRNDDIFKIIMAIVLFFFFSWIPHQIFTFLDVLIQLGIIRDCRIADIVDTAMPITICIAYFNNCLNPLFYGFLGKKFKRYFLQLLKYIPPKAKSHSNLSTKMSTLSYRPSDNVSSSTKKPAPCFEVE

[9] = system: Streptococcus sp. 'group A'; assay: Streptococcus pyogenes SK(-)GAS viability under kanamycin – luminescence, BacTiterGlo, confirmation, counter-screen for streptokinase expression inhibitor project, dose response (AID 1900); format: functional, organism-based
Streptokinase A = target: T2, Streptokinase A (Streptococcus pyogenes serotype M1, UniProt P10520); assay: viability-normalized secreted streptokinase activity reduction – plasminogen activation absorbance, OD405, dose response (AID 1914); format: functional, Streptococcus pyogenes M1 GAS;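 also: secreted streptokinase activity via plasminogen activation per viability signal from cell pellet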
T2 sequence (P10520 whole entry): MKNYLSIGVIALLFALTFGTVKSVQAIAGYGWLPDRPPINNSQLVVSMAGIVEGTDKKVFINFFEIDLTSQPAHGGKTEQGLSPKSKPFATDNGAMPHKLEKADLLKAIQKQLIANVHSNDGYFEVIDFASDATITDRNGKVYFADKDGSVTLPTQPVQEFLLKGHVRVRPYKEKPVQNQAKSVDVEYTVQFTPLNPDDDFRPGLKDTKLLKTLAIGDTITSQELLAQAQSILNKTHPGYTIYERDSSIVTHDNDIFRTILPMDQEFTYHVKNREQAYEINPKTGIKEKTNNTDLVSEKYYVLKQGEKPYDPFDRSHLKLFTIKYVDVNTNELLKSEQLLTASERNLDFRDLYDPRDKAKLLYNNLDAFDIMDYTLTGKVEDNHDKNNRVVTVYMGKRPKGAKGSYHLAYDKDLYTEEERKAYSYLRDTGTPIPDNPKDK

Streptococcus = assay: GAS UMAA2166 growth inhibition – luminescence, BacTiterGlo, counter-screen for streptokinase expression inhibitor project, dose response (AID 1915); format: functional, organism-based;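 also: potency for reduction of bacterial viability or growth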
[10] = target: T3, DNA repair and recombination protein RAD54-like (Homo sapiens, UniProt Q92698); assay: RAD54 Holliday junction migration blockers – biochemical, fluorescence, cherry-picked samples, dose series, confirmation (AID 651657); format: functional
T3 sequence (Q92698 whole entry): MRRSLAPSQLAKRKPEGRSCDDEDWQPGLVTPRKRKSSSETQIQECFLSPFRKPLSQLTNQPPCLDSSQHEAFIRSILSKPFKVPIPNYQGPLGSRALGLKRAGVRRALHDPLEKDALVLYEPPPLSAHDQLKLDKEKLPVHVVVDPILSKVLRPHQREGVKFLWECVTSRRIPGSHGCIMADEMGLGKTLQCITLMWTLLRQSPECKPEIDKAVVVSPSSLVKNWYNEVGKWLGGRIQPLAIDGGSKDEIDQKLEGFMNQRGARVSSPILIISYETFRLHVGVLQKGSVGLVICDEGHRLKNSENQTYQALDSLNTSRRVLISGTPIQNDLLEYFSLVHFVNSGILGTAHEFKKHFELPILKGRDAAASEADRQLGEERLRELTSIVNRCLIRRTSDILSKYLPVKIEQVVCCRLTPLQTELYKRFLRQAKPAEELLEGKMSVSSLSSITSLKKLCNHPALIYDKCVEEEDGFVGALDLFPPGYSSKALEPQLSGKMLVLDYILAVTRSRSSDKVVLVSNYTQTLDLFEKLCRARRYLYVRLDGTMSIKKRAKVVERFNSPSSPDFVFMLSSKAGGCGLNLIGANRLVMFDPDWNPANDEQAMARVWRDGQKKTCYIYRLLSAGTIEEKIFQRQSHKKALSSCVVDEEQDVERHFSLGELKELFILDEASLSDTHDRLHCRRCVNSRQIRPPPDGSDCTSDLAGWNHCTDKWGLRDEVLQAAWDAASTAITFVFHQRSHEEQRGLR

[11] = target: T4, DNA repair protein RAD52 homolog (Homo sapiens, UniProt P43351); format: functional, biochemical
T4 sequence (P43351 whole entry): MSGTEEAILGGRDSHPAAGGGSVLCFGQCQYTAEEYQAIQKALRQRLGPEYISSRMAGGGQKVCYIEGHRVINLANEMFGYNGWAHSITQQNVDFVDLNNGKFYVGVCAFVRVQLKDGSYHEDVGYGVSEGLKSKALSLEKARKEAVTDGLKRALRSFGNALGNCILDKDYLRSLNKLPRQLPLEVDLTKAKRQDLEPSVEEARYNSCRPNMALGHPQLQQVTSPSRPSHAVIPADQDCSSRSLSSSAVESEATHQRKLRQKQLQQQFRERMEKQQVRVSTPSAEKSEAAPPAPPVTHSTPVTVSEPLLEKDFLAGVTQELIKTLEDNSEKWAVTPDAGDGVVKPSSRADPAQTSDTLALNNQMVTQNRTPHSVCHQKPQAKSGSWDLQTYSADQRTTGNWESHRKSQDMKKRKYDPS

[12] = Trypanosoma cruzi growth suppression in host cells – NIH3T3 host cells, beta-gal luminescence, confirmation (AID 2044); format: functional, cell-based;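 also: intracellular parasites grown in NIH/3T3 mouse fibroblasts as host cells; luminescent beta-galactosidase reporter signal from transgenic T. cruzi replicating inside host cells; inhibitors lower the luminescence signal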
[13] = NIH3T3 cell viability loss – ATP luminescence, mouse fibroblasts, counter-screen, dose response (AID 2010); format: functional, cell-based;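 also: cells exposed to compound for about 90 hours before reading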
[14] = target: T5, Short transient receptor potential channel 4 (Mus musculus, UniProt Q9QUQ5); assay: block of DAMGO-driven TRPC4 calcium entry – cell-based, HEK293 TRPC4/mu-opioid, Fluo-4 calcium, dose response (AID 434942); format: functional;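 also: potency of inhibitors blocking the TRPC4 calcium response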
T5 sequence (Q9QUQ5 whole entry): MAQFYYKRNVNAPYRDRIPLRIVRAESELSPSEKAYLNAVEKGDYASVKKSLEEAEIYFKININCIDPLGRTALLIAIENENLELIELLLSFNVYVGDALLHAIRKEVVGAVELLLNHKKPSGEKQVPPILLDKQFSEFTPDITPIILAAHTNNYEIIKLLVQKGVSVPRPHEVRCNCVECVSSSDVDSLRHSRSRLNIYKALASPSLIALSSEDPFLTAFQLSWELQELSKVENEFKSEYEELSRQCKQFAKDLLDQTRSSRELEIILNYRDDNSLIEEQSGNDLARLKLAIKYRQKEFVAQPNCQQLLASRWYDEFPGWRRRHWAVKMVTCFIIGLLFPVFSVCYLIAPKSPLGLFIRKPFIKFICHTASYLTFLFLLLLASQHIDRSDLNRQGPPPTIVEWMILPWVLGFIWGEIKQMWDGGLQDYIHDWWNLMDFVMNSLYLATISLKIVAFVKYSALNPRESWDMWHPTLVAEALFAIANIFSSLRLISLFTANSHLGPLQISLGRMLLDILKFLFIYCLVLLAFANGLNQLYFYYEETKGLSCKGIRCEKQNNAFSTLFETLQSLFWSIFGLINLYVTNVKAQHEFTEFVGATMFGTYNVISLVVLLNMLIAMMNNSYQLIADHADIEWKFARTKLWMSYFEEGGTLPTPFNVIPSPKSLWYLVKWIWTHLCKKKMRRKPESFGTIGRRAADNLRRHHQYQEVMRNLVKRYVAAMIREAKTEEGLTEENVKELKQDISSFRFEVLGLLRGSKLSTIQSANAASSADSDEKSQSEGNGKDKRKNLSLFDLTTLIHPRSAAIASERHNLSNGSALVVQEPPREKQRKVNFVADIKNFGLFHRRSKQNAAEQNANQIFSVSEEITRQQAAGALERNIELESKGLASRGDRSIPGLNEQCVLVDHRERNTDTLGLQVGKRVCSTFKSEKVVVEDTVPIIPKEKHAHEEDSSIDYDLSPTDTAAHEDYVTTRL

Protein skinhead-1 = target: T6, Protein skinhead-1 (Caenorhabditis elegans, UniProt P34707); format: functional
T6 sequence (P34707 whole entry): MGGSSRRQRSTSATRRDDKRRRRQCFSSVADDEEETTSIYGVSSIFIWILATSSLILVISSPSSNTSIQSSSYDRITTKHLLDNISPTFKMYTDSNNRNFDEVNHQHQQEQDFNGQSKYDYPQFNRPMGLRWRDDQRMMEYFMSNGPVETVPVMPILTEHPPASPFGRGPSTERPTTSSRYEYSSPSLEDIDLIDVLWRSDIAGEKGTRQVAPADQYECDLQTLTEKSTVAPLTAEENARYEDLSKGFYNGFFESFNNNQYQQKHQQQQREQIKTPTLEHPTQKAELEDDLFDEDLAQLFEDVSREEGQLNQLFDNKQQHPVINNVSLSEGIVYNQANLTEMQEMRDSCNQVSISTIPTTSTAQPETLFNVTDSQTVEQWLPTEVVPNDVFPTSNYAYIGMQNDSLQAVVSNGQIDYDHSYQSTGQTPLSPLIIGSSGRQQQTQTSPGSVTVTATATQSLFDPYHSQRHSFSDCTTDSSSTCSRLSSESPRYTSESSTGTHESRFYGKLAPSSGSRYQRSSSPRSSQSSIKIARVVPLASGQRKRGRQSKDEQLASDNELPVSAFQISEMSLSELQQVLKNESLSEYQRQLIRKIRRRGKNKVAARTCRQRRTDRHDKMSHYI

Chain of Steroidogenic factor 1 (Q13285 whole entry): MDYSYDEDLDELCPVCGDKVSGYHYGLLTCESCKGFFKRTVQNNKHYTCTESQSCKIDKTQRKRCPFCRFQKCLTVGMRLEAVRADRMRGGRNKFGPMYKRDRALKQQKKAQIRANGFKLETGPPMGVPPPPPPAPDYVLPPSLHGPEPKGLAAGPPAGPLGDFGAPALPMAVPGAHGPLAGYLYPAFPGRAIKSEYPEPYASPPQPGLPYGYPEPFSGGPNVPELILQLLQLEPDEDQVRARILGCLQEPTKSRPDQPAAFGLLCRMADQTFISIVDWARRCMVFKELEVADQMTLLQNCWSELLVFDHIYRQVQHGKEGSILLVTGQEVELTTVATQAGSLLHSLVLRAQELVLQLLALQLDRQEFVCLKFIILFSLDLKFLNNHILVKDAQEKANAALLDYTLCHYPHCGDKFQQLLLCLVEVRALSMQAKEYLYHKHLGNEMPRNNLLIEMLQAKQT
Chain of Nuclear receptor subfamily 5 group A member 2 (O00482 whole entry): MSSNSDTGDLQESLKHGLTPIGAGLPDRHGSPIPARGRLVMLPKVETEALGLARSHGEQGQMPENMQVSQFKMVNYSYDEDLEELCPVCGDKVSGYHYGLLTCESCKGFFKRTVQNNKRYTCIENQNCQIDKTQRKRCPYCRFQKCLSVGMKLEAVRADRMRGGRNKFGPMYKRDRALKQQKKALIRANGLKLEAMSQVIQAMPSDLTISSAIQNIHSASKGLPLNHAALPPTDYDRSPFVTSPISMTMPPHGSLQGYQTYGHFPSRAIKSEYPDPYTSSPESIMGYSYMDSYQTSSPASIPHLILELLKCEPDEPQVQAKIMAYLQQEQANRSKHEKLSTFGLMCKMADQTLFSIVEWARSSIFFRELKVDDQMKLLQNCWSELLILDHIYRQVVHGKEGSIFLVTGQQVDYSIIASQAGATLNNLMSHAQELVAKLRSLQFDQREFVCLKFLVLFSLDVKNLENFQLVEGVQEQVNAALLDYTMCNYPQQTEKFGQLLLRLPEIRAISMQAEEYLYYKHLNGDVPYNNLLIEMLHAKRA
Chain of Glucose-6-phosphate 1-dehydrogenase (P11413 whole entry): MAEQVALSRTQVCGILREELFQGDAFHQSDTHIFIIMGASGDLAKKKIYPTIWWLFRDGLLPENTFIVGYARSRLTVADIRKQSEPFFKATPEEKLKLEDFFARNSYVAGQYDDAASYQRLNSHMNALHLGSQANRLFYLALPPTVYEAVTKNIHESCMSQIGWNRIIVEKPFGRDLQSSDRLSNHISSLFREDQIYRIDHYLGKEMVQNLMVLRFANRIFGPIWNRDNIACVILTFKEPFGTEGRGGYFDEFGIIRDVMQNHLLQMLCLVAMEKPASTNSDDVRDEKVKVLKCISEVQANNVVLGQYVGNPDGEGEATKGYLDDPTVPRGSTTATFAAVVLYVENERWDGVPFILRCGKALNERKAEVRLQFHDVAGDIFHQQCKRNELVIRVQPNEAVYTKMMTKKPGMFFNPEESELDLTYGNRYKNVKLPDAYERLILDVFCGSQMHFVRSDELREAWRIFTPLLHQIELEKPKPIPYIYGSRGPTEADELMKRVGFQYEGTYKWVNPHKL
Chain of Genome polyprotein (P29990 2492-3391 limits assumed): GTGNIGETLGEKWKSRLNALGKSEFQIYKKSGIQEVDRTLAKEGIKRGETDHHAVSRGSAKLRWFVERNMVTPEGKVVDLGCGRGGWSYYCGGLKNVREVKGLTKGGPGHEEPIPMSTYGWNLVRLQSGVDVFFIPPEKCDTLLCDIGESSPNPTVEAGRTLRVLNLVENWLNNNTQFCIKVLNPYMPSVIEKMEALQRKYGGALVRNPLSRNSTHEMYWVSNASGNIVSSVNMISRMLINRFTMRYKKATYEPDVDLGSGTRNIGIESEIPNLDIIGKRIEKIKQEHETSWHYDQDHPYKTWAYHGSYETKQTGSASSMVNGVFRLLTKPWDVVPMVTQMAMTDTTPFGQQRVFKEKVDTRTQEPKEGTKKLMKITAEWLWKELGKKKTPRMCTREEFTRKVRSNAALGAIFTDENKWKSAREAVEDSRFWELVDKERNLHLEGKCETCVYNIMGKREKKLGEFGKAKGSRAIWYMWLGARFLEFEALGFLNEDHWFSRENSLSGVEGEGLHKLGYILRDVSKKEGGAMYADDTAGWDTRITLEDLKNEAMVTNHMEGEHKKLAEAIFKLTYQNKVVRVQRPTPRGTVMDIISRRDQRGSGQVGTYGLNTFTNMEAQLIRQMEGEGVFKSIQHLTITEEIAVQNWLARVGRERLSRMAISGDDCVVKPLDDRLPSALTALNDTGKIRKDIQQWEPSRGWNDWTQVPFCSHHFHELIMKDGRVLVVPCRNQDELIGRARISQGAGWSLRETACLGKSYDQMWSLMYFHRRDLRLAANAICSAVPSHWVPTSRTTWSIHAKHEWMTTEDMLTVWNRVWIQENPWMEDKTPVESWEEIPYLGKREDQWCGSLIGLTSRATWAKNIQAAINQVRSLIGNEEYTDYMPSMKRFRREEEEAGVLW
Chain of Cytochrome P450 2C19 (P33261 whole entry): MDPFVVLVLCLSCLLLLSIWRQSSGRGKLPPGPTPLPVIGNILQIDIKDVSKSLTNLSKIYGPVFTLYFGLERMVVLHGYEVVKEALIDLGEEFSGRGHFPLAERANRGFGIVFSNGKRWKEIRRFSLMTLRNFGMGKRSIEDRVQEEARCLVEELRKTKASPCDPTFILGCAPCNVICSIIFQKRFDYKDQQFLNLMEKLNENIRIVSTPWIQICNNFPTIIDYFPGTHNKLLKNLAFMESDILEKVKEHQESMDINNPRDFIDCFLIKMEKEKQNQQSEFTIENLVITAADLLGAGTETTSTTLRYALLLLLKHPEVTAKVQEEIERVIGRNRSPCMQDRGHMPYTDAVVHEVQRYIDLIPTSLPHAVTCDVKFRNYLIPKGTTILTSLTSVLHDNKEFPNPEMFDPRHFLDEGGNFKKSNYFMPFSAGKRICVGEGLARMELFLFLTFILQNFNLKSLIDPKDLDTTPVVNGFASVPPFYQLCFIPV
Chain of Cytochrome P450 2D6 (P10635 whole entry): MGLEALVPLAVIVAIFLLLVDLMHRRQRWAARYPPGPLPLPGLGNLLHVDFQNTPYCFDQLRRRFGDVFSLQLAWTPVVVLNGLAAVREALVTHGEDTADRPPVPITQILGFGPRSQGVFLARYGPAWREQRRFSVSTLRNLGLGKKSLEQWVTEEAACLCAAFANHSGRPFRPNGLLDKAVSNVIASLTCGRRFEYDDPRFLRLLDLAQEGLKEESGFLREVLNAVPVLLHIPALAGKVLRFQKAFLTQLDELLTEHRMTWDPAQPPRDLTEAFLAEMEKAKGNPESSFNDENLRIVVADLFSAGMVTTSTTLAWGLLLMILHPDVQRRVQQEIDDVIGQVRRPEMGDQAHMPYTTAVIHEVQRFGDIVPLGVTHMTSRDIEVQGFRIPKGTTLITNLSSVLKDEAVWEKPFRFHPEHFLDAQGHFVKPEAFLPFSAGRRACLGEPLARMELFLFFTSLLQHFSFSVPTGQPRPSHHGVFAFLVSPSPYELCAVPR
Chain of Beta-galactosidase (Q8VNN2 whole entry): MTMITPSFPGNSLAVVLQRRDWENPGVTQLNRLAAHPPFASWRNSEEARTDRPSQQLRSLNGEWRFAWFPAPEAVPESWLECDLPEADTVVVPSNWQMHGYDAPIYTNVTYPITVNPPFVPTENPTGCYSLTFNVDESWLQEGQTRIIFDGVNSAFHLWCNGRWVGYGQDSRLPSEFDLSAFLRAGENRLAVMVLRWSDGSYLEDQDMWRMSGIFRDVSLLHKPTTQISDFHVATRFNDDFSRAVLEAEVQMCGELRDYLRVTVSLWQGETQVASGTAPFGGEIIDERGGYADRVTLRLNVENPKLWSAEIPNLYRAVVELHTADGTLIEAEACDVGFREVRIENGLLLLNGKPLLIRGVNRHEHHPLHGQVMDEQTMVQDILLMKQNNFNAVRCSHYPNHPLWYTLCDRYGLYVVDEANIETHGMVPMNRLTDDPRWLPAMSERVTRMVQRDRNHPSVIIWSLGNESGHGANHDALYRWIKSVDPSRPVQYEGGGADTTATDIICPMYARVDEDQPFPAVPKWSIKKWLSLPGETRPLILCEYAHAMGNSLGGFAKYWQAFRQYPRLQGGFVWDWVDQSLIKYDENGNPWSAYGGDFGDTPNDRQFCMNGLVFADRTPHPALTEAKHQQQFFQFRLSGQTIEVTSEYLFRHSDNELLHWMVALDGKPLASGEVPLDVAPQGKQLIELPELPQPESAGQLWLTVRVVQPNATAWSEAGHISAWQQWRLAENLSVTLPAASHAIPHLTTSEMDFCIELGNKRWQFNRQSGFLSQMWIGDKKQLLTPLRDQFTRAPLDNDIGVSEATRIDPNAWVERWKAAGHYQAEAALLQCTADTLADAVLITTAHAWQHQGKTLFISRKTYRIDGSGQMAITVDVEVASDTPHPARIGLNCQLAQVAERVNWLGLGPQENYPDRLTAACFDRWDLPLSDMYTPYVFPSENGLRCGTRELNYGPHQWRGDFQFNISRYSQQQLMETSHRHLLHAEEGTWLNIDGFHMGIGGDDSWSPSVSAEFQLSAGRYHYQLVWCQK

Compound: C/C=C/c1ccc([C@@H]2[C@H](CO)N(Cc3ccccn3)[C@H]2CNC(C)=O)cc1
- AC50 [1]: 83.2 µM (active)

Compound: CCN(CC)C1CC(=O)N(c2ccc(Br)cc2)C1=O (configuration not stated)
- AC50 [2]: 4.04 µM (active)

Compound: COc1cc(/C=N/NC(N)=S)ccc1OCC(=O)Nc1ccc(C)cc1
- IC50 [3]: 35.9 µM (inactive)
- IC50 (Steroidogenic factor 1): 8.04 µM (active)
- IC50 [4]: 35.9 µM (inactive)

Compound: Oc1cc(CNCc2ccccc2)c(O)cc1CNCc1ccccc1
- IC50 [5]: > 80 µM (inactive)
- IC50 (Genome polyprotein): 37.4 µM (active)

Compound: Cc1cc(C)c2c(N=NN(C)C)[nH]nc2n1
- AC50 (Cytochrome P450 2C19): 39.8 µM (inconclusive)
- AC50 [2]: 3.96 µM (active)
- AC50 (Cytochrome P450 2D6): 14.1 µM (inconclusive)

Compound: C=CCc1ccc(OCC(O)CN2CCN(Cc3ccc(Cl)cc3)CC2)c(OC)c1 (configuration not stated)
- CC50 [6]: > 40 µM (active)
- CC50 [7]: > 20 µM (active)
- IC50 (cells): 23.3 µM (active)

Compound: COc1cccc(/C=N/NC(=O)c2c(C)nc3ccc(Br)cn23)c1
- IC50 [5]: 36 µM (inactive)

Compound: CC(C)c1nc(C#N)c(NN)o1
- EC50 (Beta-galactosidase): > 40 µM (inactive)
- IC50 [8]: 25.3 µM (not active)

Compound: O=C(/C=C/c1cccc(C(F)(F)F)c1)Nc1cccc(C(F)(F)F)c1
- EC50 [9]: 4.38 µM (active)
- EC50 (Streptokinase A): > 50 µM (not active)
- EC50 (Streptococcus): 4.93 µM (active)
- AC50 [2]: 4.19 µM (active)

Compound: COc1ccc(NC(=O)CN2C(=O)NC3(CCCC3)C2=O)cc1
- IC50 [3]: 35.9 µM (inactive)
- IC50 (Steroidogenic factor 1): 35.9 µM (inactive)
- IC50 [4]: 35.9 µM (inactive)

Compound: Cc1c(C)n(CCN(C)C)c2ccc(C(=O)OCCN(C)C)cc12
- AC50 [10]: 8.41 µM (active)
- AC50 [11]: 1.31 µM (active)

Compound: COc1ccc(NS(=O)(=O)c2ccc(OCC(=O)N3CCN(C)CC3)cc2)cc1Cl
- EC50 [12]: 0.524 µM (active)
- EC50 [13]: > 30 µM (not active)
- IC50 [3]: 9.48 µM (active)
- IC50 (Steroidogenic factor 1): 5.92 µM (active)
- IC50 [4]: 35.9 µM (inactive)

Compound: O=C(c1ccco1)N1CCN(C/C=C/c2ccccc2)CC1
- EC50 [14]: 0.596 µM (active)
- IC50 (Protein skinhead-1): > 100 µM (inactive)
